biological target: T1, NMDA receptor containing the NR2B subunit (Homo sapiens, UniProt Q05586+Q13224); experiment: not given; conditions: continuous intravenous administration; cited from earlier work
T1 sequence (Q13224 27-1484, other chains not shown): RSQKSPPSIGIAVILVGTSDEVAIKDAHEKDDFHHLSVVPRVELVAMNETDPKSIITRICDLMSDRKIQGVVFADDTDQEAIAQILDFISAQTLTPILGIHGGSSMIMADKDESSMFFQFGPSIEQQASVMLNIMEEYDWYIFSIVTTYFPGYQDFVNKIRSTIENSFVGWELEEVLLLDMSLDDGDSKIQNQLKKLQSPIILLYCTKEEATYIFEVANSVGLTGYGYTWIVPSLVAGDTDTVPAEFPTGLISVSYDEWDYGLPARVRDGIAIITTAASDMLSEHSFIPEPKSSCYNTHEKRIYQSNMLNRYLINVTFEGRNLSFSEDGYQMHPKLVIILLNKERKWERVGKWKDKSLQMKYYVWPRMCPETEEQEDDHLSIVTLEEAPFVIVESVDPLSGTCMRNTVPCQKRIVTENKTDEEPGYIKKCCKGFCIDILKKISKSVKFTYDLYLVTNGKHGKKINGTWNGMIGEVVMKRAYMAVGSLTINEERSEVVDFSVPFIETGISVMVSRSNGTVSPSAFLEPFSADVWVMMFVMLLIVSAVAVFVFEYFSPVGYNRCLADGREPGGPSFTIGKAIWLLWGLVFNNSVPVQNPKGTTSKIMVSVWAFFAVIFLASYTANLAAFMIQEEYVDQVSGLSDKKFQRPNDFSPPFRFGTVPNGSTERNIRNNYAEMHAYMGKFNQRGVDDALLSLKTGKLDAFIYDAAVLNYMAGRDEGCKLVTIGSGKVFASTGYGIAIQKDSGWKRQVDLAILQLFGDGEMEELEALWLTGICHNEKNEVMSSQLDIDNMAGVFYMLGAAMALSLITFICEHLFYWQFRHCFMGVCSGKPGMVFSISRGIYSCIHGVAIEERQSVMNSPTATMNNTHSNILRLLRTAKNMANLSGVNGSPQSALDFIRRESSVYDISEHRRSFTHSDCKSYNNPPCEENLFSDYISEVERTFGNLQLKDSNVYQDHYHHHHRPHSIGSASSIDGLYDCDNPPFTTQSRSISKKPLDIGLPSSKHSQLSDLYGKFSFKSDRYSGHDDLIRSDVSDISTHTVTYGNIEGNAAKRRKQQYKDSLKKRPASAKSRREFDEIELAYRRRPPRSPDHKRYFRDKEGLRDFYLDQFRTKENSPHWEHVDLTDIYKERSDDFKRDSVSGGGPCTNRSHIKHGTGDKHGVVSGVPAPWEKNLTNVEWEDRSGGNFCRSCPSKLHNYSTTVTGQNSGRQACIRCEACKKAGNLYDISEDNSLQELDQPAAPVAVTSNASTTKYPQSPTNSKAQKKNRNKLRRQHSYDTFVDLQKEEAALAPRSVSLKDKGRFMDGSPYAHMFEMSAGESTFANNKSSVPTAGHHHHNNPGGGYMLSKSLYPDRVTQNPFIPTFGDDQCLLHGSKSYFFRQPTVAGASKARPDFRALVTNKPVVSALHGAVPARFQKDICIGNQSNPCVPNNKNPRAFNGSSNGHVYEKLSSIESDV

In the case of C[C@@H]([C@@H](O)c1ccc(O)cc1)N1CCC(O)(c2ccccc2)CC1 [CP-101, 606], the treatment resistant-depression symptom is listed as “significantly improves treatment resistant-depression symptom”.

biological target: T2, Human GRIN1 and human GRIN2B expressing HEK293 cells (Homo sapiens, UniProt Q13224); experiment: NR2B Ca2+ flux assay; format: cell-based; conditions: 10 μM test compound, glutamic acid/glycine stimulated Fluo-4 fluorescence, FLIPR, read-out: inhibitory rate (@10 μM)
T2 construct: host or cells: HEK293
Protocol: Experimental Example 1 NR2B Ca^2+ Flux Assay
Human GRIN1 and human GRIN2B expressing HEK293 cells were purchased from ChanTest. The cells were cultured in a DMEM/F-12 (COSMO BIO, 10-092-CM) medium added with 10% FBS (fetal bovine serum, AusGene), 100 units/mL penicillin, 100 μg/mL streptomycin, 500 μg/mL neomycin, 100 μg/mL Zeocin, 5 μg/mL Blasticidin at 37° C., 5% CO2. The cells were detached from flask with trypsin the day before the assay, suspended in a seeding medium (DMEM (Invitrogen, 31053) added with 10% FBS, 100 units/mL penicillin, 100 μg/mL streptomycin) at 8×10^5 cells/mL, seeded by 25 μL per well in a 384-well plate (Falcon, 356663) at 20000 cells/well, and cultured overnight in an incubator. On the day of the assay, tetracycline (Wako Pure Chemical Industries, Ltd., 209-16561) was diluted with the seeding medium at 2 μg/mL, added at […] to the plate seeded with the cells, and cultured for 2 hr in an incubator. Thereafter, the medium was removed, and the cells were washed with 50 μL/well assay buffer (137 mM NaCl, 4 mM KCl, 1.8 mM CaCl2, 10 mM HEPES (pH 7.2), 10 mM Glucose, 0.1% BSA). Then, a loading buffer (assay buffer added with 2.5 uM Fluo-4AM, 2 mM Amaranth, 1 mM Tartrazine) was added at 25 μL/well, and loading was performed in the incubator for 30 min, and at room temperature for 15 min. A test compound (25 μL) was added, and the cells were stood for 15 min at room temperature. Using FLIPR (Molecular Devices), 25 μL of an assay buffer containing […], 30 μM glycine was added, and the fluorescence signal was measured every 3 seconds for 5 min. The inhibitory activity was calculated as a relative activity value that inhibits 100% of the cumulative value of the fluorescence value of a well added with a buffer free of glutamic acid, glycine, relative to the cumulative value of the fluorescence value of each well.

T2 sequence (Q13224 27-1484, other chains not shown): as above

Going from O=C(Cc1cccc2nccn12)Nc1ccc(S(F)(F)(F)(F)F)cc1 [Example 62, 2-(imidazo[1,2-a]pyridin-5-yl)-N-(4-(pentafluoro-λ^6-sulfanyl)phenyl)-acetamide] to O=C(Cc1cccc2nccn12)Nc1ccc(Br)cc1 [Example 88, N-(4-bromophenyl)-2-(imidazo[1,2-a]pyridin-5-yl)acetamide], the inhibition at 10 µM rises from 82% to 91%.

Going from O=C(Cc1cccc2nccn12)Nc1ccc(OC(F)(F)F)nc1 [Example 63, 2-(imidazo[1,2-a]pyridin-5-yl)-N-(6-(trifluoromethoxy)-pyridin-3-yl)acetamide] to O=C(Cc1cccc2nccn12)Nc1ccc(OC(F)(F)F)cn1 [Example 92, 2-(imidazo[1,2-a]pyridin-5-yl)-N-(5-(trifluoromethoxy)-pyridin-2-yl)acetamide], the inhibition at 10 µM rises from 85% to 87%.

Compared with CC(C)(C)c1ccc(NC(=O)Cc2cccc3nccn23)cc1 [Example 64, N-(4-tert-butylphenyl)-2-(imidazo[1,2-a]pyridin-5-yl)acetamide], CC(C)c1ccc(NC(=O)Cc2cccc3nccn23)cc1 [Example 66, 2-(imidazo[1,2-a]pyridin-5-yl)-N-(4-isopropylphenyl)acetamide] is higher in inhibition at 10 µM: 84% for the first, 92% for the second.

Compared with O=C(Cc1cccc2nccn12)Nc1cc2ccccc2s1 [Example 65, N-(1-benzothiophen-2-yl)-2-(imidazo[1,2-a]pyridin-5-yl)acetamide], O=C(Cc1cccc2nccn12)Nc1ccc(I)c(F)c1 [Example 82, N-(3-fluoro-4-iodophenyl)-2-(imidazo[1,2-a]pyridin-5-yl)acetamide] is higher in inhibition at 10 µM: 83% for the first, 94% for the second.

First: O=C(Cc1cccc2nccn12)Nc1ccc2c(c1)CCO2 [Example 67, N-(2,3-dihydro-1-benzofuran-5-yl)-2-(imidazo[1,2-a]pyridin-5-yl)acetamide]
Second: O=C(Cc1cccc2nccn12)Nc1ccc(Br)c(F)c1 [Example 83, N-(4-bromo-3-fluorophenyl)-2-(imidazo[1,2-a]pyridin-5-yl)acetamide]
The inhibition at 10 µM of the first is lower: 78% for the first, 93% for the second.

Compared with O=C(Cc1cccc2nccn12)Nc1ccc(C(F)F)cc1 [Example 69, N-(4-(difluoromethyl)phenyl)-2-(imidazo[1,2-a]pyridin-5-yl)acetamide], O=C(Cc1cccc2nccn12)Nc1ccc(OC2CCC2)cc1 [Example 75, N-(4-(cyclobutyloxy)phenyl)-2-(imidazo[1,2-a]pyridin-5-yl)acetamide] is lower in inhibition at 10 µM: 87% for the first, 68% for the second.

Going from Cc1cc(CC(=O)Nc2ccc(C(F)(F)F)cc2)n2ccnc2c1 [Example 71, 2-(7-methylimidazo(1,2-a]pyridin-5-yl)-N-(4-(trifluoromethyl)phenyl)-acetamide] to O=C(Cc1cc(F)cc2nccn12)Nc1ccc(C(F)(F)F)cc1 [Example 90, 2-(7-fluoroimidazo[1,2-a]pyridin-5-yl)-N-(4-(trifluoromethyl)phenyl)-acetamide], the inhibition at 10 µM rises from 51% to 88%.

Compared with O=C(Cc1c(F)ccc2nccn12)Nc1ccc(C(F)(F)F)cc1 [Example 73, 2-(6-fluoroimidazo[1,2-a]pyridin-5-yl)-N-(4-(trifluoromethyl)phenyl)-acetamide], Cc1ccc2nccn2c1CC(=O)Nc1ccc(C(F)(F)F)cc1 [Example 87, 2-(6-methylimidazo[1,2-a]pyridin-5-yl)-N-(4-(trifluoromethyl)phenyl)-acetamide] is higher in inhibition at 10 µM: 73% for the first, 93% for the second.

Compared with CCc1ccc2nccn2c1CC(=O)Nc1ccc(OC(F)(F)F)cc1 [Example 78, 2-(6-ethylimidazo[1,2-a]pyridin-5-yl)-N-(4-(trifluoromethoxy)phenyl)acetamide], Cc1ccc2nccn2c1CC(=O)Nc1ccc(OC(F)(F)F)cc1 [Example 79, 2-(6-methylimidazo[1,2-a]pyridin-5-yl)-N-(4-(trifluoromethoxy)phenyl)acetamide] is lower in inhibition at 10 µM: 97% for the first, 95% for the second.

Compared with COc1ccc2nccn2c1CC(=O)Nc1ccc(OC(F)(F)F)cc1 [Example 80, 2-(6-methoxyimidazo[1,2-a]pyridin-5-yl)-N-(4-(trifluoromethoxy)phenyl)acetamide], COc1ccc2nccn2c1CC(=O)Nc1ccc(C(F)(F)F)cc1 [Example 89, 2-(6-methoxyimidazo[1,2-a]pyridin-5-yl)-N-(4-(trifluoromethyl)phenyl)-acetamide] is lower in inhibition at 10 µM: 94% for the first, 92% for the second.

Compared with CCc1ccc2nccn2c1CC(=O)Nc1ccc(C(F)(F)F)cc1 [Example 81, 2-(6-ethylimidazo[1,2-a]pyridin-5-yl)-N-(4-(trifluoromethyl)phenyl)-acetamide], O=C(Cc1c(Cl)ccc2nccn12)Nc1ccc(OC(F)(F)F)cc1 [Example 91, 2-(6-chloroimidazo[1,2-a]pyridin-5-yl)-N-(4-(trifluoromethoxy)-phenyl)acetamide] is lower in inhibition at 10 µM: 95% for the first, 91% for the second.

Going from CC(C(=O)Nc1ccc(OC(F)(F)F)cc1)c1cccc2nccn12 (stereo not shown) [Example 84, 2-(imidazo[1,2-a]pyridin-5-yl)-N-(4-(trifluoromethoxy)-phenyl)propanamide] to CC(C(=O)Nc1ccc(C(F)(F)F)cc1)c1cccc2nccn12 (stereo not shown) [Example 93, 2-(imidazo[1,2-a]pyridin-5-yl)-N-(4-(trifluoromethyl)phenyl)-propanamide], the inhibition at 10 µM falls from 94% to 89%.

First: Cc1cn2c(CC(=O)Nc3ccc(OC(F)(F)F)cc3)cccc2n1 [Example 85, 2-(2-methylimidazo[1,2-a]pyridin-5-yl)-N-(4-(trifluoromethoxy)-phenyl)acetamide]
Second: O=C(Cc1ccc(F)c2nccn12)Nc1ccc(OC(F)(F)F)cc1 [Example 94, 2-(8-fluoroimidazo[1,2-a]pyridin-5-yl)-N-(4-(trifluoromethoxy)-phenyl)acetamide]
The inhibition at 10 µM of the first is higher: 91% for the first, 85% for the second.

Going from O=C(Cc1cc(F)cc2nccn12)Nc1ccc(OC(F)(F)F)cc1 [Example 86, 2-(7-fluoroimidazo[1,2-a]pyridin-5-yl)-N-(4-(trifluoromethoxy)-phenyl)acetamide] to CCc1ccc(NC(=O)Cc2cccc3nccn23)nc1 [Example 95, N-(5-ethylpyridin-2-yl)-2-(imidazo[1,2-a]pyridin-5-yl)acetamide], the inhibition at 10 µM falls from 93% to 76%.

biological target: T1, NMDA receptor containing the NR2B subunit; experiment: not given; conditions: in vivo; cited from earlier work

For CC(C(O)c1ccc(O)cc1)N1CCC(Cc2ccccc2)CC1 (stereo not shown) [Ifenprodil], the pain sense threshold is listed as “pain sense threshold increases”.

tested on: NMDA receptor; experiment: not given; conditions: in vivo; cited from earlier work

In the case of CC12CC3CC(C)(C1)CC(N)(C3)C2 [memantine], the “peripheral symptoms of dementia” value is given as “partially improves peripheral symptoms of dementia”.

tested on: NMDA receptor; experiment: not given; conditions: continuous intravenous administration; cited from earlier work

In the case of CNC1(c2ccccc2Cl)CCCCC1=O (stereo not shown) [ketamine], the “depression symptom accompanying major depression and bipolar disorder” value is given as “improves depression symptom accompanying major depression and bipolar disorder rapidly and in a sustained manner”.

biological target: NMDA receptor containing the NR2B subunit (Rattus norvegicus, UniProt P35439+Q00960); experiment: not given; conditions: rodents; cited from earlier work
Sequence (Q00960 27-1482, other chains not shown): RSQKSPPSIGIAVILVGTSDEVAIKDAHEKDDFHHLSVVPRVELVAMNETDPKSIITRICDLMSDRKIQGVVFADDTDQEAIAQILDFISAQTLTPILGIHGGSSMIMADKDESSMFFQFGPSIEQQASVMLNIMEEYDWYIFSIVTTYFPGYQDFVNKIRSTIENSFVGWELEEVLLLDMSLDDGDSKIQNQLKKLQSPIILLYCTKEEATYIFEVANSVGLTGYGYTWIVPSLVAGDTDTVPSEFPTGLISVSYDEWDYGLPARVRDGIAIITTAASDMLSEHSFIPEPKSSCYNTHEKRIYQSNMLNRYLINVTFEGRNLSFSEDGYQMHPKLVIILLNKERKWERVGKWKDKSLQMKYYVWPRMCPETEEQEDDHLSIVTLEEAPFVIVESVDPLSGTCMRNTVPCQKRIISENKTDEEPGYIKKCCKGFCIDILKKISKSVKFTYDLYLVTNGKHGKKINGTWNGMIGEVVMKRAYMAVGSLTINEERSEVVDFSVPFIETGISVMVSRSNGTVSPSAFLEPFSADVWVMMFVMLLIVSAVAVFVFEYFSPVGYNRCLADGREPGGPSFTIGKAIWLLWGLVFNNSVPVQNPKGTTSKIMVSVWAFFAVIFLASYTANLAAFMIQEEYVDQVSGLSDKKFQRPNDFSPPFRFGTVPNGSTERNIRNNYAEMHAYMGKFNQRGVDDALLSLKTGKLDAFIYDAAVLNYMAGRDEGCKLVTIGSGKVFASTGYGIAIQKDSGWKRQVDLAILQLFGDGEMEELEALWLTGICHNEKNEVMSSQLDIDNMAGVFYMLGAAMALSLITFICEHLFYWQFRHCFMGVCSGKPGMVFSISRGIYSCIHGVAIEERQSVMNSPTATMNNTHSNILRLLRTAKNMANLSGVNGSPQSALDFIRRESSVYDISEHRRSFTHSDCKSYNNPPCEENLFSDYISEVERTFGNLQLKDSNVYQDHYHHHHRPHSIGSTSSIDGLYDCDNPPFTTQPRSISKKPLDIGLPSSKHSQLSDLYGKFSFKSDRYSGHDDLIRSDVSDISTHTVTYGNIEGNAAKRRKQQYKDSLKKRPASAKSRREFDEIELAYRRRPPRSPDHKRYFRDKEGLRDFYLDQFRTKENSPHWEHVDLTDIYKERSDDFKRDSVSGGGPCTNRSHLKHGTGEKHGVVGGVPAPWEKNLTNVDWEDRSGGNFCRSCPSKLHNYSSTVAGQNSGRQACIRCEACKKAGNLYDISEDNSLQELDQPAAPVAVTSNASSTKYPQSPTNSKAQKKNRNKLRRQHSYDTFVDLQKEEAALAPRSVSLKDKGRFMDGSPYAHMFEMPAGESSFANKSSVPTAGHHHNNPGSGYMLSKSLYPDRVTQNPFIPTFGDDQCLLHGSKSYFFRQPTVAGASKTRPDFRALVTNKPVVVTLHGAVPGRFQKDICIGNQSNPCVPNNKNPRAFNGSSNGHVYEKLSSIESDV

In the case of C[C@@H]([C@@H](O)c1ccc(O)cc1)N1CCC(O)(c2ccccc2)CC1 [CP-101, 606], the “number of occurrence and depth of cortical spreading depression” value is listed as “suppress the number of occurrence and the depth of cortical spreading depression”.
For C[C@@H](CN1CCC(Cc2ccccc2)CC1)[C@@H](O)c1ccc(O)cc1 [Ro25-6981], the “number of occurrence and depth of cortical spreading depression” value is listed as “suppress the number of occurrence and the depth of cortical spreading depression”.
